Patent publication US20090029856A1, “Hinokitiol As A Plant Pesticide” (priority 2007, published 2009)
≈ marks a conversion by molar mass, not a printed value. Where “and” joins values, the source holds several entries; their conditions need not be identical. Equal values may be shown once.

Assays:
[1] = tested on: Verticillium dahliae; assay: Spiral gradient dilution method, inhibition of mycelial growth; format: cell-based; conditions: PDA, 20° C., hinokitiol in acetone
Description: (§1) In this method, a potato dextrose agar (PDA) medium is plated with the test solution by means of a spiral plater, which applies the compound in a 2.5-log dilution in a continuous radial concentration gradient. Fungal inoculum in two replicates is then placed along radial lines across the gradient. […] EC50 values were calculated based on these measurements. The fungi evaluated were members of the following families Anamorphic Phyllachoraceae (Colletotrichum acutatum), Anamorphic Sclerotiniaceae (Botrytis cinerea), Mitosporic fungi (Verticillium dahlias; Microphomina sp.), and Oomycota (Phytophtora capsici). Hinokitiol (5 mg/mL) was dissolved in acetone, and acetone alone was also used as a control to check for non-specific inhibition.

[2] = tested on: Colletotrichum acutatum; assay: as above; format: cell-based; conditions: PDA, 20° C., hinokitiol in acetone
Description: as §1

[3] = tested on: Phytophtora capsici; assay: as above; format: cell-based; conditions: PDA, 20° C., hinokitiol in acetone
Description: as §1

[4] = tested on: Microphomina sp.; assay: as above; format: cell-based; conditions: PDA, 20° C., hinokitiol in acetone
Description: as §1

[5] = Analysis of hinokitiol residue on green beans after sun exposure; format: physicochemical, green bean; conditions: for [hinokitiol] in the HPLC injection solution: green bean leaves
Description: The goal of this study was to know stability of hinokitiol on plant leaves, instead of vials, after sun exposure. The following procedure was used • 1. A 3.2% Hinokitiol formulation containing propylene glycol, nonphytotoxic ethoxylate fatty esters; butanol, EDTA, UV protection agent, 1% sodium hydroxide and water for a total of 100% was used. The total weight of each formulation was 20 grams. • 2. Spraying solution: 10 mL of 100-fold dilution of the above formulation. • 3. Green bean plants: 6 plants with 10-15 leaves. • 4. Two plants were evenly sprayed 10 mL solution. • 5. Three plants was stored in dark incubator (25° C.), another three plants was put on the parking lot with full sun exposure (28˜35° C.). • 6. After 6 h, leaves were cut and punched into the same size discs (Ø21 mm). Discs from sun-exposed green bean and darkness green bean were 118 and 129, respectively. • 7. Discs were ground in a mortar and transferred into a separation funnel. The mortar and pestle were sequentially washed with 2 N HCl and ethyl acetate. The hinokitiol was extracted three times (3×50 mL) by ethyl acetate under 2N HCl (100 mL). The organic phase was dried by anhydrous sodium sulfate. After filtration and evaporation, the organic phase gave out a residue. The residue was dissolved by ethanol (1.5 mL). This solution was directly used for HPLC analysis. Injection volume was 10 μL.
• Darkness: leaf disc 129 • Sun exposure: leaf disc 118 • Darkness: Peak area (AU): 50463 • Sun exposure: Peak Area (AU); 13197 • Standard line: y=66.367X-52.019 (R^2=0.9999, X=μg/ml of hinokitiol standard solution, 2 μL injection volume; y=peak area)
• [hinokitiol] from darkness=152 μg/mL*1.5 mL/129 Disc=1.77 μg/Disc • [hinokitiol] from sun exposure=40 μg/mL*1.5 mL/118 Disc =0.51 μg/Disc
• [hinokitiol] from sun exposure/[hinokitiol] from darkness=0.51/1.77=0.29

[6] = tested on: grey mold (Botrytis cinerea); assay: In vivo greenhouse test on green bell pepper (Capsicum annuum) against grey mold; conditions: for Average (mean) disease rating, 2 days / Average (mean) disease rating, 3 days / Average (mean) disease rating, 7 days: mean of 3 replicates; for rating at day 3 / rating at day 7 / rating at day 2: single replicates
Description: To further test the inhibitory effect of hinokitiol on grey mold (Botrytis cinerea), an in vivo test on green bell pepper (Capsicum annuum) was conducted in a greenhouse. Pepper plants at a 6-true-leaf growth stage were sprayed with hinokitiol in 50% ethanol. The stock solution (5 mg/mL) was prepared in 97% ethanol, and diluted to following concentrations: 0, 0.01, 0.1 mg/mL. To compare the efficacy of hinokitiol in an alcohol-free solution, a treatment with 0.1 mg/mL of hinokitiol in water was included in this study. Pepper plants with no treatment were used as controls. All treatments were carried out in 3 replicates. After treatment with hinokitiol, the leaf surfaces were allowed to dry under the growth lights, after which the plants were inoculated with a B. cinerea spore solution containing 2×10^6 spores per mL. Inoculated plants were incubated in the dark in a covered flat at 22° C. […] Symptoms were rated on a scale of 0-5; 0 indicating no lesions on leaves, and 5 indicating severe rotting/dead plant.

[7] = tested on: Botrytis gray mold; assay: Botrytis gray mold on pepper plants, formulation applied pre and post infection; format: in vivo
Description: Pepper plants (California Wonder Bell Pepper) were treated with a 3.2% Hinokitiol formulation containing propylene glycol, nonphytotoxic ethoxylate fatty esters; butanol, EDTA, UV protection agent, 1% of a 15% solution of sodium hydroxide and water 3 hours before and 24 hours after inoculation (pre and post infection, respectively). Hinokitiol concentration in pre-infection application was 1.0% v/v and for post-infection application was 2.0% v/v. Three plants were included per treatment in pre-infection applications, and 18 plants in post-infection treatments. The formulation employed contained 3.2% of active ingredient. Inoculation was performed with a conidial suspension of 1.8×10^6 conidia per ml of 75% PDB (Potato Dextrose Broth). Scale of evaluation was 0=no infection, 1=Small scattered lesions, 2=Scattered big lesions or small ones covering more than 50% of leaf surface, 3=Half plant dead, 4=75% of the plant dead, 5=Entire plant dead. Evaluation was performed 3 days after inoculation.

[8] = tested on: Lactuca sativa (lettuce) seedlings; assay: High-throughput 96-well post-emergence herbicide assay; format: in vivo
Description: A high-throughput 96-well assay was used to test the efficacy of hinokitiol as a post-emergence, non-selective herbicide. Seedlings of Lactuca sativa (lettuce) were grown in 96-well plates under continuous light. Hinokitiol was added on the one-week old seedlings at a 5×-dilution series from 1 to 0 mg/mL, and the minimum concentration needed for killing the seedling was recorded the next day.

[9] = 0.01 mg/mL in 50% ethanol, scale 0-5
[10] = 0.1 mg/mL in 50% ethanol, scale 0-5

CC(C)c1cccc(=O)c(O)c1 [Hinokitiol, 4-isopropyl tropolone]
EC50 [1]: 11 µg/mL (≈ 67 µM)
EC50 [2]: 12 µg/mL (≈ 73.1 µM)
EC50 [3]: 12 µg/mL (≈ 73.1 µM)
EC50 [4]: 11 µg/mL (≈ 67 µM)
Relative stability: [hinokitiol] from sun exposure/[hinokitiol] from darkness ([5]; 6 h): 0.29
hinokitiol concentration on each disc of green beans ([5]; 6 h darkness, 25° C.): 1.77 μg/Disc
hinokitiol concentration on each disc of green beans ([5]; 6 h sun exposure, 28-35° C.): 0.51 μg/Disc
hinokitiol concentration per unit area (Disc) relative to that stored in the darkness at 25° C. ([5]; after 6 h sun exposure at 28-35° C.): 29%
[hinokitiol] in the HPLC injection solution ([5]; 6 h darkness, 25° C.): 152 µg/mL
[hinokitiol] in the HPLC injection solution ([5]; 6 h sun exposure, 28-35° C.): 40 µg/mL
time the residue on the plant would last ([5]; green bean plants): at least one day
Average (mean) disease rating, 2 days ([6]; 0.01 mg/mL EtOH, scale 0-5): 1.7 a
Average (mean) disease rating, 3 days ([6]; 0.01 mg/mL EtOH, scale 0-5): 2.7 ab
Average (mean) disease rating, 7 days ([6]; 0.01 mg/mL EtOH, scale 0-5): 3.0 ab
rating at day 3 [6, 9]: 4 and 3 and 1
rating at day 7 [6, 9]: 5 and 3 and 1
rating at day 2 ([6]; 0.01 mg/mL in 50% ethanol, scale 0-5 (0 no lesions, 5 severe rotting/dead plant)): 2 (2×) and 1
Average (mean) disease rating, 2 days ([6]; 0.1 mg/mL EtOH, scale 0-5): 1.7 a
Average (mean) disease rating, 3 days ([6]; 0.1 mg/mL EtOH, scale 0-5): 2.7 ab
Average (mean) disease rating, 7 days ([6]; 0.1 mg/mL EtOH, scale 0-5): 4.0 ab
Average (mean) disease rating, 2 days ([6]; 0.1 mg/mL H2O, scale 0-5): 0.3 b
Average (mean) disease rating, 3 days ([6]; 0.1 mg/mL H2O, scale 0-5): 0.7 b
Average (mean) disease rating, 7 days ([6]; 0.1 mg/mL H2O, scale 0-5): 2.3 b
rating at day 2 [6, 10]: 2 (2×) and 1
rating at day 3 [6, 10]: 3 (2×) and 2
rating at day 7 [6, 10]: 5 (2×) and 2
rating at day 2 ([6]; 0.1 mg/mL in water, scale 0-5): 0 (2×) and 1
rating at day 3 ([6]; 0.1 mg/mL in water, scale 0-5): 0 and 1 (2×)
rating at day 7 ([6]; 0.1 mg/mL in water, scale 0-5): 1 and 2 and 4
incidence of B. cinerea compared with untreated control pepper plants ([6]; 0.1 mg/mL water): significantly lower
disease outbreak and final disease incidence compared with untreated control ([6]; dissolved in ethanol at 0.01 and 0.1 mg/mL): postponed the disease outbreak but the final disease incidence was not significantly different from the untreated control
number of pepper plants at scale of infection 2 ([7]; 0.64 mg/ml, 24 hr after inoculation, of 18 plants per rep): 12 and 7
number of pepper plants at scale of infection 4 ([7]; 0.64 mg/ml, 24 hr after inoculation, of 18 plants per rep, 4 = 75% of the plant dead): 1 and 2
intensity of disease (scale of severity 0-5), single plants ([7]; 3.2% hinokitiol formulation at 1.0% v/v (0.32 mg/ml), applied 3 hr before inoculation, evaluated 3 days after inoculation, 1 = small scattered lesions, 5 = entire plant dead): 1
visible symptoms of disease or phytotoxicity on pepper plants ([7]; hinokitiol formulation at 1% (0.32 mg/ml) dilution): did not show any visible syptoms of disease or phytotocicity
effect on lettuce seedlings ([8]; concentration of 8 mg/L): not harmful to the plant
minimum concentration needed for killing the seedling ([8]; one-week old lettuce seedlings, recorded the next day): 40 mg/L
